From patent US20240309322A1, “[…], METHOD FOR MAN[…], AND MA[…] AND MICROGLIA” (KEIO UNIVERSITY, priority 2021, published 2024)

System: SPI1 gene
Assay: qRT-PCR of SPI1 gene expression on adding doxycycline (PU protocol)
Type: cell-based, human
Procedure: The expression level at the transcription level can be evaluated through, for example, quantitative reverse transcription PCR (qRT-PCR) using one obtained by reverse-transcribing mRNA prepared from target cells as a template.
In the PU protocol, doxycycline (1 μg/mL) was added to the culture liquid from day 6 to day 18 from the start of culture.
By adding doxycycline, the expression level of the SPI1 gene evaluated through qRT-PCR increased by at least about 50 times compared to a case without doxycycline.

Structure (SMILES): C[C@H]1c2cccc(O)c2C(=O)C2=C(O)[C@]3(O)C(=O)C(C(N)=O)=C(O)[C@@H](N(C)C)[C@@H]3[C@@H](O)[C@@H]21 [doxycycline]
- expression level of the SPI1 gene evaluated through qRT-PCR, increase compared to a case without doxycycline (doxycycline 1 μg/mL in culture liquid from day 6 to day 18, SPI1-introduced hiPSC-derived cells): at least 50 times
- expression level of the SPI1 gene with a primer set that selectively amplifies endogenous SPI1 gene (regardless of the presence or absence of doxycycline, endogenous SPI1 only): 1-2 times
